The compounds below were run on Mus musculus (assay: Percent inhibition of arachidonic acid induced mouse ear edema at 2 mg of total dose; Insufficiently soluble in acetone).
Type: functional, organism-based
`O=C(Oc1c2c(c(OC(=O)c3ccccc3)c3cc(Cl)ccc13)OCCCO2)c1ccccc1` was tested, and the inhibition was “Insufficiently soluble in acetone”.
In the case of `O=C(Oc1c2c(c(OC(=O)c3ccccc3)c3cc(Cl)ccc13)OCCO2)c1ccccc1`, the inhibition is reported as “Insufficiently soluble in acetone”.

What follows are compounds tested on Mus musculus (assay: Percent inhibition of arachidonic acid induced mouse ear edema at 2 mg of total dose).
Type: functional
`CC(C)(C)C(=O)Oc1c2c(c(OC(=O)C(C)(C)C)c3cc(Cl)ccc13)OCCCO2` was tested, and the Inhibition was 10%.
Work on `COc1c(OC)c(OC(C)=O)c2cc(Cl)ccc2c1OC(C)=O` [LONAPALENE] yielded an Inhibition of 54%.
With `CC(C)C(=O)Oc1c2c(c(OC(=O)C(C)C)c3cc(Cl)ccc13)OCCCO2` the Inhibition was 27%.
`CC(=O)Oc1c2c(c(OC(C)=O)c3cc(Cl)ccc13)OCCCO2` showed an Inhibition of 40%.
With `CCCC(=O)Oc1c2c(c(OC(=O)CCC)c3cc(Cl)ccc13)OCCO2` the Inhibition was 26%.
In the case of `CCC(=O)Oc1c2c(c(OC(=O)CC)c3cc(Cl)ccc13)OCO2`, the Inhibition is reported as 35%.
Compound `CC(C)(C)C(=O)Oc1c2c(c(OC(=O)C(C)(C)C)c3cc(Cl)ccc13)OCCO2` has an Inhibition of 41%.
Compound `CCC(=O)Oc1c2c(c(OC(=O)CC)c3cc(Cl)ccc13)OCCCO2` has an Inhibition of 10%.
`CC(=O)Oc1c2c(c(OC(C)=O)c3cc(Cl)ccc13)OCO2` gave an Inhibition of 61%.
`CC(C)C(=O)Oc1c2c(c(OC(=O)C(C)C)c3cc(Cl)ccc13)OCCO2` was tested, and the Inhibition was 75%.
`CCC(=O)Oc1c2c(c(OC(=O)CC)c3cc(Cl)ccc13)OCCO2` was tested, and the Inhibition was 30%.
With `CC(=O)Oc1c2c(c(OC(C)=O)c3cc(Cl)ccc13)OCCO2` the Inhibition was 24%.
`CCCC(=O)Oc1c2c(c(OC(=O)CCC)c3cc(Cl)ccc13)OCCCO2` gave an Inhibition of 35%.
`O=C(Oc1c2c(c(OC(=O)c3ccccc3)c3cc(Cl)ccc13)OCO2)c1ccccc1` was tested, and the Inhibition was 10%.
`CC(C)(C)C(=O)Oc1c2c(c(OC(=O)C(C)(C)C)c3cc(Cl)ccc13)OCO2` showed an Inhibition of 8%.
